These results are taken from patent publication US8183243B2, “Melanocortin receptor agonists” (LG Life Sciences Ltd., priority 2008, dated 2012).

One test deals with T1, MC4R (Homo sapiens, UniProt P32245).
T1 construct: expressed in transfected cells; host or cells: HEK (Human Embryonic Kidney) permanent expression cell line HEK MC4R-Luc, co-expressing CRE-luciferase
T1 sequence (P32245 whole entry, species assumed): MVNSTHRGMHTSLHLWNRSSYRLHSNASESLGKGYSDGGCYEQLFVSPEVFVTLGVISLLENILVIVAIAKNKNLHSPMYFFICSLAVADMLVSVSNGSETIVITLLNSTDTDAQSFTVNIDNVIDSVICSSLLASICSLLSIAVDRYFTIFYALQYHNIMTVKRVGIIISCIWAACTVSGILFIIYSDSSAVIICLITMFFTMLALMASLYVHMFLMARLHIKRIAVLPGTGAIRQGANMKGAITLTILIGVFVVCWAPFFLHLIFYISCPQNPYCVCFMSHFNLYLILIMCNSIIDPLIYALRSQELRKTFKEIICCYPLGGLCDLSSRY
The test can be described thus: MCR agonistic activity (luciferase assay / cAMP accumulation assay) on MC4R. Type of test: cell-based. Particulars: HEK cell lines expressing MC4R; method A (CRE-luciferase) or B (cAMP accumulation), not said which; read-out: EC50 value, agonistic activity to MC4R (range per group of Examples). An outline of the steps: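 HEK cells stably expressing MC4R with a CRE-luciferase reporter treated 5 hours at 37 °C with serially diluted agonist (≤1% DMSO); luminescence expressed relative to 10 nM NDP-MSH, EC50 at half-maximal signal. Alternatively, cAMP measured after 30 minutes with compound plus 500 μM IBMX by [3H]-cAMP competition binding.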
A general note: Cyclic AMP is a second messenger, typically raised through Gs and lowered through Gi signalling.
Turning to `CC(=O)N([C@H]1C[C@H](C(=O)N2CCN(C(C)C)CC2)N(C(=O)[C@@H]2CN(C(C)(C)C)C[C@H]2c2ccc(Cl)cc2)C1)[C@H]1CC[C@@H](C)CC1` [Example 39, N-{(3S,5R)-1-{[(3S,4R)-1-tert-butyl-4-(4-chlorophenyl)pyrrolidin-3-yl]carbonyl}-5-[(4-isopropylpiperazin-1-yl)carbonyl]pyrrolidin-3-yl}-N-(cis-4-methylcyclohexyl)acetamide], the EC50 (commonly the concentration needed to bring the measured effect to its halfway point) lay within 0.1 to 10 nM. On the same count and under the same terms, with `CN1CCN(C(=O)[C@H]2C[C@H](N(C(=O)[C@@H]3CCCO3)[C@H]3CC[C@@H](C)CC3)CN2C(=O)[C@@H]2CN(C(C)(C)C)C[C@H]2c2ccc(Cl)cc2)CC1` (relative stereo) [Example 35, (2S)-N-{(3S,5R)-1-{[(3S,4R)-1-tert-butyl-4-(4-chlorophenyl)pyrrolidin-3-yl]carbonyl}-5-[(4-methylpiperazin-1-yl)carbonyl]pyrrolidin-3-yl}-N-(cis-4-methylcyclohexyl)tetrahydrofuran-2-carboxamide] the figure was 0.1 to 10 nM.

With `CN1CCN(C(=O)[C@@H]2C[C@H](N(C(=O)[C@@H]3CCCO3)[C@H]3CC[C@@H](C)CC3)CN2C(=O)[C@@H]2CN(c3ccc(C#N)cn3)C[C@H]2c2ccc(Cl)cc2)CC1` [Example 69, (2S)-N-{(3S,5S)-1-{[(3S,4R)-4-(4-chlorophenyl)-1-(5-cyanopyridine-2-yl)pyrrolidin-3-yl]carbonyl}-5-[(4-methylpiperazin-1-yl)carbonyl]pyrrolidin-3-yl}-N-(cis-4-methylcyclohexyl)tetrahydrofuran-2-carboxamide], the 50% effective concentration (EC50) fell in the range of 0.1 to 10 nM. On to `CC(=O)N(C1CCC(C)(C)CC1)[C@H]1C[C@@H](C(=O)N2CCN(C(C)C)CC2)N(C(=O)[C@@H]2CN(C(C)(C)C)C[C@H]2c2ccc(Cl)cc2)C1` [Example 9, N-{(3S,5S)-1-{[(3S,4R)-1-tert-butyl-4-(4-chlorophenyl)pyrrolidin-3-yl]carbonyl}-5-[(4-isopropylpiperazin-1-yl)carbonyl]pyrrolidin-3-yl}-N-(4,4-dimethylcyclohexyl)acetamide], for which the concentration for a half-maximal effect (EC50) was 0.1 to 10 nM. As to `CN1CCN(C(=O)[C@@H]2C[C@H](N(C(=O)C(C)(C)CO)[C@H]3CC[C@@H](C)CC3)CN2C(=O)[C@@H]2CN(C(C)(C)C)C[C@H]2c2ccc(Cl)cc2)CC1` [Example 19, N-{(3S,5S)-1-{[(3S,4R)-1-tert-butyl-4-(4-chlorophenyl)pyrrolidin-3-yl]carbonyl}-5-[(4-methylpiperazin-1-yl)carbonyl]pyrrolidin-3-yl}-3-hydroxy-2,2-dimethyl-N-(cis-4-methylcyclohexyl)propanamide], the EC50 fell in the range of 0.1 to 10 nM. Turning to `CC(C)N1CCN(C(=O)[C@H]2C[C@H](N(C(=O)[C@@H]3CCCO3)C3CCC(C)(C)CC3)CN2C(=O)[C@@H]2CN(C3CCOCC3)C[C@H]2c2ccc(F)cc2F)CC1` [Example 52, (2S)-N-{(3S,5R)-1-{[(3S,4R)-4-(2,4-difluorophenyl)-1-(tetrahydro-2H-pyran-4-yl)pyrrolidin-3-yl]carbonyl}-5-[(4-isopropylpiperazin-1-yl)carbonyl]pyrrolidin-3-yl}-N-(4,4-dimethylcyclohexyl)tetrahydrofuran-2-carboxamide], the EC50 fell in the range of 0.1 to 10 nM. Turning to `CN1CCN(C(=O)[C@@H]2C[C@H](N(C(=O)c3ccco3)c3ccc(F)cc3F)CN2C(=O)[C@@H]2CN(C(C)(C)C)C[C@H]2c2ccc(Cl)cc2)CC1` [Example 83, N-{(3S,5S)-1-{[(3S,4R)-1-tert-butyl-4-(4-chlorophenyl)pyrrolidin-3-yl]carbonyl}-5-[(4-methylpiperazin-1-yl)carbonyl]pyrrolidin-3-yl}-N-(2,4-difluorophenyl)-2-furamide], the EC50 lay within 10 to 100 nM. The same measure, in the same setting: with `CN1CCN(C(=O)[C@@H]2C[C@H](N(C(=O)C(C)(C)C)C3CCC(C)(C)CC3)CN2C(=O)[C@@H]2CN(C(C)(C)C)C[C@H]2c2ccc(Cl)cc2)CC1` [Example 10, N-{(3S,5S)-1-{[(3S,4R)-1-tert-butyl-4-(4-chlorophenyl)pyrrolidin-3-yl]carbonyl}-5-[(4-methylpiperazin-1-yl)carbonyl]pyrrolidin-3-yl}-N-(4,4-dimethylcyclohexyl)-2,2-dimethylpropanamide] the figure was 0.1 to 10 nM. Same read-out and setting: with `CN1CCN(C(=O)[C@H]2C[C@H](N(C(=O)[C@@H]3CCCO3)C3CCC(C)(C)CC3)CN2C(=O)[C@@H]2CN(C(C)(C)C)C[C@H]2c2ccc(Cl)cc2)CC1` [Example 34, (2S)-N-{(3S,5R)-1-{[(3S,4R)-1-tert-butyl-4-(4-chlorophenyl)pyrrolidin-3-yl]carbonyl}-5-[(4-methylpiperazin-1-yl)carbonyl]pyrrolidin-3-yl}-N-(4,4-dimethylcyclohexyl)tetrahydrofuran-2-carboxamide] the figure was 0.1 to 10 nM. On the same count and under the same terms, under `CC(=O)N(C1CCC(C)(C)CC1)[C@H]1C[C@@H](C(=O)N2CCNCC2)N(C(=O)[C@@H]2CN(C(C)(C)C)C[C@H]2c2ccc(F)cc2F)C1` [Example 2, N-[(3S,5S)-1-{[(3S,4R)-1-tert-butyl-4-(2,4-difluorophenyl)pyrrolidin-3-yl]carbonyl}-5-(piperazin-1-ylcarbonyl)pyrrolidin-3-yl]-N-(4,4-dimethylcyclohexyl)acetamide] stands 0.1 to 10 nM; under `CN1CCN(C(=O)[C@@H]2C[C@H](N(C(=O)C(C)(C)CO)[C@H]3CC[C@@H](C)CC3)CN2C(=O)[C@@H]2CN(C3CC3)C[C@H]2c2ccc(F)cc2F)CC1` [Example 60, N-{(3S,5S)-1-{[(3S,4R)-1-cyclopropyl-4-(2,4-difluorophenyl)pyrrolidin-3-yl]carbonyl}-5-[(4-methylpiperazin-1-yl)carbonyl]pyrrolidin-3-yl}-N-(cis-4-methylcyclohexyl)-3-hydroxy-2,2-dimethylpropanamide], 0.1 to 10 nM.

With `CN1CCN(C(=O)[C@@H]2C[C@H](N(C(=O)C(C)(C)C)c3ccc(F)cc3F)CN2C(=O)[C@@H]2CN(C(C)(C)C)C[C@H]2c2ccc(F)cc2F)CC1` [Example 82, N-{(3S,5S)-1-{[(3S,4R)-1-tert-butyl-4-(2,4-difluorophenyl)pyrrolidin-3-yl]carbonyl}-5-[(4-methylpiperazin-1-yl)carbonyl]pyrrolidin-3-yl}-N-(2,4-difluorophenyl)-2,2-dimethylpropanamide], the EC50 fell in the range of 0.1 to 10 nM. On the same count and under the same terms, under `CN1CCN(C(=O)[C@@H]2C[C@H](N(C(=O)[C@@H]3CCCO3)[C@H]3CC[C@@H](C)CC3)CN2C(=O)[C@@H]2CN(c3ccccn3)C[C@H]2c2ccc(F)cc2F)CC1` [Example 68, (2S)-N-{(3S,5S)-1-{[(3S,4R)-4-(2,4-difluorophenyl)-1-pyridine-2-ylpyrrolidin-3-yl]carbonyl}-5-[(4-methylpiperazin-1-yl)carbonyl]pyrrolidin-3-yl}-N-(cis-4-methylcyclohexyl)tetrahydrofuran-2-carboxamide] stands 0.1 to 10 nM; under `CN1CCN(C(=O)[C@@H]2C[C@H](N(C(=O)C(C)(C)C)C3CCC(C)(C)CC3)CN2C(=O)[C@@H]2CN(c3ccccn3)C[C@H]2c2ccc(Cl)cc2)CC1` [Example 64, N-{(3S,5S)-1-{[(3S,4R)-4-(4-chlorophenyl)-1-pyridine-2-ylpyrrolidin-3-yl]carbonyl}-5-[(4-methylpiperazin-1-yl)carbonyl]pyrrolidin-3-yl}-N-(4,4-dimethylcyclohexyl)-2,2-dimethylpropanamide], 10 to 100 nM. Still for that read-out and setting: with `CC(C)N1CCN(C(=O)[C@@H]2C[C@H](N(C(=O)[C@@H]3CCCO3)C3CCC(C)(C)CC3)CN2C(=O)[C@@H]2CN(C3CCSCC3)C[C@H]2c2ccc(F)cc2F)CC1` [Example 48, (2S)-N-{(3S,5S)-1-{[(3S,4R)-4-(2,4-difluorophenyl)-1-(tetrahydro-2H-thiopyran-4-yl)pyrrolidin-3-yl]carbonyl}-5-[(4-isopropylpiperazin-1-yl)carbonyl]pyrrolidin-3-yl}-N-(4,4-dimethylcyclohexyl)tetrahydrofuran-2-carboxamide] the figure was 10 to 100 nM.

Consider `CN1CCN(C(=O)[C@H]2C[C@H](N(C(=O)[C@@H]3CCCO3)C3CCC(C)(C)CC3)CN2C(=O)[C@@H]2CN(C3CC3)C[C@H]2c2ccc(Cl)cc2)CC1` [Example 55, (2S)-N-{(3S,5R)-1-{[(3S,4R)-4-(4-chlorophenyl)-1-cyclopropylpyrrolidin-3yl]carbonyl}-5-[(4-methylpiperazin-1-yl)carbonyl]pyrrolidin-3-yl}-N-(4,4-dimethylcyclohexyl)tetrahydrofuran-2-carboxamide], for which the EC50 was in the range of 10 to 100 nM. `CN1CCN(C(=O)[C@@H]2C[C@H](N(C(=O)c3ccoc3)[C@H]3CC[C@@H](C)CC3)CN2C(=O)[C@@H]2CN(C(C)(C)C)C[C@H]2c2ccc(F)cc2F)CC1` [Example 24, N-{(3S,5S)-1-{[(3S,4R)-1-tert-butyl-4-(2,4-difluorophenyl)pyrrolidin-3-yl]carbonyl}-5-[(4-methylpiperazin-1-yl)carbonyl]pyrrolidin-3-yl}-N-(cis-4-methylcyclohexyl)-3-furamide]: the concentration giving a half-maximal response (EC50) was in the range of 0.1 to 10 nM.

Staying with this test, now noted: specific activities of representative compounds; HEK cell lines expressing MC4R; method A or B, not said which; read-out: EC50.
As to `CC(=O)N(C1CCC(C)(C)CC1)[C@H]1C[C@@H](C(=O)N2CCNCC2)N(C(=O)[C@@H]2CN(C(C)(C)C)C[C@H]2c2ccc(F)cc2F)C1` [Example 2, N-[(3S,5S)-1-{[(3S,4R)-1-tert-butyl-4-(2,4-difluorophenyl)pyrrolidin-3-yl]carbonyl}-5-(piperazin-1-ylcarbonyl)pyrrolidin-3-yl]-N-(4,4-dimethylcyclohexyl)acetamide], the EC50 turned out to be 6 nM.
